Entries after “also recorded” stand apart in the source; their conditions may differ.
Assays:
E0771-SULT cells [1] = test: Oral cholenoic acid in mice with transplanted E0771-SULT cells: CS production and CD8+ T cell infiltration in tumor; type: in vivo, mouse
E0771-SULT-PD-L1 cells = test: In vivo tumor growth of E0771-SULT-PD-L1 cells with anti-PD-L1 antibody treatment; parameters: species or system mouse; settings: oral cholenoic acid combined with anti-PD-L1 antibody, days 9, 12 and 15 after transplantation
Protocol: As described later for each experiment, 200 μl of an anti-mouse PD-L1 antibody (10F.9G2, 0.5 mg/ml, BioXCell) or a control of the matched isotype (LTF-2, 0.5 mg/ml, BioXCell) was intraperitoneally injected into tumor-bearing mice (see experimental results (3)).
Cholenoic acid was suspended in 0.5% (w/v) methylcellulose 400 solution (FUJIFILM Wako Pure Chemical Corporation) at a proportion of 50 mg/ml, and a 200-μl portion (10 mg) of the suspension was orally administered to mice (see experimental results (6)). To examine the effect on the tumor infiltration of OTII cells or OTI T cells, 5 mg of cholenoic acid was orally administered three times at intervals of 6 hours in 2 days before the assay. […]
The growth of tumors was monitored by measuring the vertical diameters of each tumor with a caliper twice a week and calculating the tumor volumes from the following expression.

E0771-SULT cells [2] = test: Trans-cancer migration assay (CCL21-induced T-cell migration); type: cell-based, mouse; settings: E0771-SULT cells pretreated with cholenoic acid (5 μM)
From the text: FIG. 10 is a series of diagrams showing experimental results (6) in Experiment Example 1 (identification of cholenoic acid as a SULT2B1b inhibitor that promotes anti-tumor immunity). […] The data were acquired from two independent experiments, and expressed as mean±SD. * P<0.05; ** P<0.01 (one-way ANOVA followed by Dunnett's post-hoc test). The level of CCL21-induced T-cell migration in E0771-MOCK cells (CCL21+, SULT−) was used as a control for comparison. FIGS. 10B and 10C show results of enzyme kinetic analysis for SULT2B1b inhibition by cholenoic acid (3-OH-5-Chln). SULT2B1b protein (0.3 or 0.6 μM) was preincubated with cholenoic acid (20 or 40 μM) or a vehicle (2% DMSO), and reacted with cholesterol at different concentrations in the presence of 100 μM PAPS (FIG. 10B) or reacted with PAPS at different concentrations in the presence of 10 μM cholesterol (FIG. 10C). The data were fitted to the Michaelis-Menten equation (the left figures in FIGS. 10B and 10C), and their inhibition modes were analyzed with Lineweaver-Burk plots (right figures).
In carrying out the migration assay, T cells were loaded on E0771-MOCK cells (expressing only a vector; SULT−) or E0771-SULT cells (SULT+) seeded on Matrigel in an upper chamber.

[3] = biological target: T1, recombinant human SULT2B1b protein (Homo sapiens, UniProt O00204); test: SULT assay (in vitro SULT2B1b enzymatic activity measurement); type: biochemical
T1 sequence (O00204 1-365): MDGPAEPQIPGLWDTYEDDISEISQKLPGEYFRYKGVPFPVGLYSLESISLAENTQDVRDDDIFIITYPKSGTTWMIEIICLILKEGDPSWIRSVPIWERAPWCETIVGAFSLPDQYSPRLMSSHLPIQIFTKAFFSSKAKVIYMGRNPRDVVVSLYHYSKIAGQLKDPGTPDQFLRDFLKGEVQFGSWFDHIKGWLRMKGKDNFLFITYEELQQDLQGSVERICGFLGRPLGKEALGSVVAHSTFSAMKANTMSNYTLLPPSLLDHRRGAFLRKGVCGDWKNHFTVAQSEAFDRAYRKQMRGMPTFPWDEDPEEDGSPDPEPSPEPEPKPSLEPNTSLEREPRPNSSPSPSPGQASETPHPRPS
Protocol: For screening for a SULT2B1b inhibitor, enzymatic activity measurement for SULT2B1b was carried out by a method described in a previous report (NPL 2) with slight modifications.
The reaction solution (50 μl) was composed of 1 to 5 μg of recombinant human SULT2B1b protein, 10 μM [^3H]cholesterol (approximately 4,000 dpm/pmol), 10 mM Tris-HCl (pH 7.5, containing 5 mM MgCl2) containing 0.1 mM 3′-phosphoadenosine 5′-phosphosulfate (PAPS), 0.2 mM 2-hydroxypropyl-β-cyclodextrin, and 5% (v/v) ethanol. Recombinant human SULT2B1b protein was pre-incubated with 1 μl of a test compound (final concentration: 40 or 200 μM) or DMSO (control) at room temperature for 15 minutes, 2 mM PAPS (2.5 μl) was then added to initiate reaction, the resultant was reacted at 37° C. for 15 minutes, and 0.8 ml of ethanol was added to terminate the reaction.
The solution after the reaction was subjected to thin-layer chromatography (TLC) for separation, and then to a liquid scintillation counter to quantify radiolabeled CS.
From the percentage to the amount ([…]) of radiolabeled CS generated through reaction in the absence of the test compound (DMSO) (control), the SULT2B1b activity (% activity) of SULT2B1b protein in the presence of the test compound was evaluated, and the effect of the test compound to inhibit SULT2B1b-mediated CS production (CS production inhibitory effect) was evaluated.
In enzyme assay, SULT assay was performed with use of cholenoic acid as a compound to be tested at different cholesterol and PAPS concentrations (wherein 0.5 to 1 μg of recombinant human SULT2B1b protein was used, the preincubation time and reaction time were each 10 minutes), and the results were fitted to the Michaelis-Menten equation by using Prism 9 (GraphPad Software, Inc.) to perform enzyme kinetic analysis for the inhibition by cholenoic acid.
SULT assay was performed for the compounds as test compounds by the method described in (14) of “II. Experimental procedure” in Experiment Example 1 to evaluate the SULT2B1b inhibitory effects of the compounds.

## C[C@H](CCC(=O)O)[C@H]1CC[C@H]2[C@@H]3CC=C4C[C@@H](O)CC[C@]4(C)[C@H]3CC[C@]12C [Compound 1, (R)-4-((3S,8S,9S,10R,13R,14S,17R)-3-hydroxy-10,13-dimethyl-2,3,4,7,8,9,10,11,12,13,14,15,16,17-tetradecahydro-1H-cyclopenta[a]phenanthren-17-yl)pentanoic acid]
E0771-SULT cells [1]; oral administration on days 5, 6 and 7, analysed day 8, listed as cholenoic acid
  CS production in tumor: local reduction in CS production; also recorded: locally inhibited
E0771-SULT cells [1]; oral administration on days 5, 6 and 7, low CS region on day 8
  CD8+ T cell infiltration in tumor: CD8^+ T cell infiltration was induced
E0771-SULT-PD-L1 cells
  growth of E0771-SULT-PD-L1 cells (tumor volume): renders E0771-SULT-PD-L1 cells susceptible to immune checkpoint inhibition; also recorded: causes the growth of E0771-SULT-PD-L1 cells (tumor volume) to be suppressed
E0771-SULT cells [2]
  CCL21-induced T-cell migration suppressed by E0771-SULT cells: suppression effect was not observed; also recorded: recovery
[3]; Michaelis-Menten / Lineweaver-Burk, 10 μM cholesterol
  inhibition mode with respect to PAPS (sulfate donor): uncompetitively
[3]; Michaelis-Menten / Lineweaver-Burk, 100 μM PAPS
  inhibition mode with respect to cholesterol (substrate): non-competitively
[3]; recombinant human SULT2B1b, read-out: IC50 value (enzyme assay)
  IC50: 24.8 µM
[3]; test compound 200 μM, relative to DMSO control (100%), read-out: in vitro SULT2B1b assay % activity at 200 μM
  activity at 200 µM: 20.6%

Source: patent publication US20250002526A1, “PHARMACEUTICAL COMPOSITION HAVING ANTI-CANCER IMMUNOSTIMULATING EFFECT AND/OR IMMUNE CHECKPOINT INHIBITION POTENTIATING EFFECT” (KYUSHU UNIVERSITY, NATIONAL UNIVERSITY CORPORATION, priority 2021, published 2025)
